# Data from patent US7479277B2, “Method for reducing intraocular pressure using integrin-linked kinase inhibitor” (Wisconsin Alumni Research Foundation, priority 2005, dated 2009).
# Test system: cultured human trabecular meshwork (HTM) cells
# Experiment: HTM cell spreading on fibronectin III7-10 coated coverslips, immunofluorescence microscopy
# Type: cell-based
# Description: A cultured human trabecular meshwork (HTM) diploid cell strain obtained from trabecular meshwork explants was serum-starved for twenty-four hours and then plated on 12 mm round glass coverslips (Bellco Glass, Inc.; Vineland, N.J.) coated with III7-10 domains of fibronectin (RGD cell-binding domain; 236 nM) for three hours at 37° C., 95% humidity, 5% CO2, ambient air. The cells were exposed to either DMSO (control) or an ILK inhibitor with or without 472 nM of the Hep II domain. Following incubation, cells were fixed for immunofluorescence microscopy by methods known to a skilled artisan.
# HTM cells were examined by immunofluorescence microscopy using anti-vinculin (1:3000; Sigma-Aldrich; St. Louis, Mo.), anti-ILK (1:1000; Upstate Group, LLC; Charlottesville, Va.), anti-talin (1:1000; Chemicon; Temecula, Calif.), anti-paxillin (1:1000; BD Biosciences; San Jose, Calif.) or anti-FAK (1:1000; BD Biosciences) antibodies to reveal actin stress fibers and focal adhesions. […] Cell images were acquired with a Zeiss AxioCam HRm camera mounted on a Zeiss Axiophan 2 Imaging fluorescence microscope together with AxioVision v.3.1 software. The percentage of spread cells was determined by counting polygonal cells containing stress fibers (spread cells) versus rounded cells lacking stress fibers (non-spread cells) from eight to twelve fields.
smiles,measurement,setting,value
O=c1cc(N2CCOCC2)oc2c(-c3ccccc3)cccc12 [LY29400],percentage of spread cells,"LY29400 25 μM added to ILK inhibitor plus soluble Hep II domain 472 nM, p<0.008",28%
same,percentage of spread cells,"administered alone, compared to control cells, p<0.2",35%
